According to patent US6576624B1, “Use of dopamine receptor antagonists in palliative tumor therapy” (Zentaris AG, priority 1996, dated 2003):
Where two headings read alike, the source gives them in different places. Marks after values point to notes of the source that are not given here.

Legend:
[1] = for Changes of body weight, Control AUC, day 7 / Changes of body weight, D-18506(4 × 68.1 mg/kg p.o.) AUC, day 7 / Changes of body weight, D-21266(4 × 46.4 mg/kg p.o.) AUC, day 7: AUC to day 7; for Changes of body weight, Control AUC, day 7 / Changes of body weight, Control AUC, day 11: asterisks = comparison with control group; for Changes of body weight, D-18506(4 × 68.1 mg/kg p.o.) AUC, day 7 / Changes of body weight, D-18506(4 × 68.1 mg/kg p.o.) AUC, day 11: compared with D-18506 alone (D-18506 4 × 68.1 mg/kg p.o. alone); for Changes of body weight, D-18506(4 × 68.1 mg/kg p.o.) AUC, day 7 / Changes of body weight, D-18506(4 × 68.1 mg/kg p.o.) AUC, day 11 / Changes of body weight, D-21266(4 × 46.4 mg/kg p.o.) AUC, day 7 / Changes of body weight, D-21266(4 × 46.4 mg/kg p.o.) AUC, day 11: same i.p. doses as c1; for Changes of body weight, Control AUC, day 11 / Changes of body weight, D-18506(4 × 68.1 mg/kg p.o.) AUC, day 11 / Changes of body weight, D-21266(4 × 46.4 mg/kg p.o.) AUC, day 11: AUC to day 11; for Changes of body weight, D-21266(4 × 46.4 mg/kg p.o.) AUC, day 7 / Changes of body weight, D-21266(4 × 46.4 mg/kg p.o.) AUC, day 11: compared with D-21266 alone (D-21266 4 × 46.4 mg/kg p.o. alone); for Effect on body weight development of animals treated with octadecyl(1,1-dimethylpiperidinio-4-yl)phosphate: simultaneous administration with D-21266, normal rats, FIGS. 7 and 8, Table 2
Source text: Comparative studies with respect to body weight changes in healthy and tumor-bearing rats were investigated after administration of miltefosine or octadecyl(1,1-dimethylpiperidinio-4-yl)phosphate alone and in combination with various appetite-stimulating compounds.

[2] = cancer patients; Eur. J. Cancer 29A, 208-209, 1993; cited from earlier work
[3] = tested on: DMBA-induced breast tumor; experiment: Anti-tumor action on DMBA-induced breast tumor of rats; format: in vivo, rat; conditions: rats with DMBA-induced breast tumor; FIGS. 11-12
[4] = Table 1, rat, i.p. mg/kg: Domperidone 0.1, Pimozide 0.2, Metoclopramide 0.2, Cyproheptadine 2.5, combinations with D-18506 4 × 68.1 mg/kg p.o.
[5] = Table 2, rat, i.p. mg/kg: Pimozide 0.1, Cyproheptadine 2.5, Metoclopramide 0.2, Domperidone 0.1, combinations with D-21266 4 × 46.4 mg/kg p.o.

CCN(CC)CCNC(=O)c1cc(Cl)c(N)cc1OC [Metoclopramide, metoclopramide]
Changes of body weight, Control AUC, day 7 [1, 4]: 11.5
Changes of body weight, D-18506(4 × 68.1 mg/kg p.o.) AUC, day 7 ([1]; Table 1, rat): 11.5**
Changes of body weight, Control AUC, day 11 [1, 4]: 30.5
Changes of body weight, D-18506(4 × 68.1 mg/kg p.o.) AUC, day 11 ([1]; Table 1, rat): 30.5**
Changes of body weight, Control AUC, day 7 [1, 5]: 19.2
Changes of body weight, D-21266(4 × 46.4 mg/kg p.o.) AUC, day 7 ([1]; Table 2, rat): 19.2
Changes of body weight, Control AUC, day 11 [1, 5]: 49.4
Changes of body weight, D-21266(4 × 46.4 mg/kg p.o.) AUC, day 11 ([1]; Table 2, rat): 49.4
Effect on body weight development of animals treated with octadecyl(1,1-dimethylpiperidinio-4-yl)phosphate [1]: no significant effect
Effect on the loss of weight caused by miltefosine ([1]; simultaneous administration with miltefosine, healthy and tumor-bearing rats, domperidone or pimozide 5×0.1 mg/kg i.p.): does not lead to any positive effect

CCCCCCCCCCCCCCCCCCOP(=O)([O-])OC1CC[N+](C)(C)CC1 [D-21266, octadecyl(1,1-dimethylpiperidinio-4-yl)phosphate]
Changes of body weight, D-21266(4 × 46.4 mg/kg p.o.) AUC, day 7 ([1]; Table 2, rat): 10.6
Changes of body weight, D-21266(4 × 46.4 mg/kg p.o.) AUC, day 11 ([1]; Table 2, rat): 37.1
Body weight development after octadecyl(1,1-dimethylpiperidinio-4-yl)phosphate alone ([1]; rat, in vivo): increase in weight less than the control animals

CN1CCC(=C2c3ccccc3C=Cc3ccccc32)CC1 [Cyproheptadine, cyproheptadine]
Changes of body weight, Control AUC, day 7 [1, 4]: 0.8
Changes of body weight, D-18506(4 × 68.1 mg/kg p.o.) AUC, day 7 ([1]; Table 1, rat): 0.8
Changes of body weight, Control AUC, day 11 [1, 4]: 15.5
Changes of body weight, D-18506(4 × 68.1 mg/kg p.o.) AUC, day 11 ([1]; Table 1, rat): 15.5
Changes of body weight, Control AUC, day 7 [1, 5]: 1.5
Changes of body weight, D-21266(4 × 46.4 mg/kg p.o.) AUC, day 7 ([1]; Table 2, rat): 1.5
Changes of body weight, Control AUC, day 11 [1, 5]: 20.6
Changes of body weight, D-21266(4 × 46.4 mg/kg p.o.) AUC, day 11 ([1]; Table 2, rat): 20.6
Effect on body weight development of animals treated with octadecyl(1,1-dimethylpiperidinio-4-yl)phosphate [1]: no significant effect

CCCCCCCCCCCCCCCCOP(=O)([O-])OCC[N+](C)(C)C [D-18506, miltefosine]
Changes of body weight, D-18506(4 × 68.1 mg/kg p.o.) AUC, day 7 ([1]; Table 1, rat): −17.9
Changes of body weight, D-18506(4 × 68.1 mg/kg p.o.) AUC, day 11 ([1]; Table 1, rat): −23.5
Body weight change on administration of miltefosine alone ([1]; rat, in vivo): clear loss of weight
Side effects in patients treated with miltefosine [2]: marked loss of body weight

O=c1[nH]c2ccccc2n1C1CCN(CCCC(c2ccc(F)cc2)c2ccc(F)cc2)CC1 [Pimozide, pimozide]
Changes of body weight, Control AUC, day 7 [1, 4]: 30.4**
Changes of body weight, D-18506(4 × 68.1 mg/kg p.o.) AUC, day 7 ([1]; Table 1, rat): 30.4**
Changes of body weight, Control AUC, day 11 [1, 4]: 69.8**
Changes of body weight, D-18506(4 × 68.1 mg/kg p.o.) AUC, day 11 ([1]; Table 1, rat): 69.8**
Changes of body weight, Control AUC, day 7 [1, 5]: 31.2**
Changes of body weight, D-21266(4 × 46.4 mg/kg p.o.) AUC, day 7 ([1]; Table 2, rat): 31.2**
Changes of body weight, Control AUC, day 11 [1, 5]: 67.5**
Changes of body weight, D-21266(4 × 46.4 mg/kg p.o.) AUC, day 11 ([1]; Table 2, rat): 67.5**

O=c1[nH]c2ccccc2n1CCCN1CCC(n2c(=O)[nH]c3cc(Cl)ccc32)CC1 [Domperidone, domperidone]
Effect on anti-tumor action of octadecyl(1,1-dimethylpiperidinio-4-yl)phosphate [3]: without affecting the anti-tumor action
Effect on body weight development of animals treated with octadecyl(1,1-dimethylpiperidinio-4-yl)phosphate [1]: more than compensated
Body weight development, alone and in combination with octadecyl(1,1-dimethylpiperidinio-4-yl)phosphate ([1]; tumor-bearing rats, FIGS. 9-10): increase the body weight development
